{
  "source": "paper PMC10665234",
  "about": "“Nutritional Supplementation and Enhanced Antioxidant Function by Dietary Intake of Selenoneine and Other Selenium Compounds in Red Seabream Pagrus major” (Marine Biotechnology (New York, N.y.), 2023)",
  "assay_type_in_all_cases": "in vivo, red seabream Pagrus major",
  "key": {"[1]": {"test_system": "red seabream", "assay": "Oxidation-reduction potential (ORP) in white muscle", "details": "2 weeks; 1 or 2 ppm in diet", "procedure": "ORP was measured with ORP electrode (9300, Horiba, Kyoto, […]). The electrode was pierced into muscle and pressed gently until the potential stabilized for 60 s."}, "[2]": {"assay": "Selenoneine concentration in white muscle and blood cell by HPLC-ICP-MS (82Se)", "details": "fish cultured for 4 weeks", "procedure": "(§1) Red seabream fry (average body weight of 5.4 g) was obtained from private seed and seedling production company (Oita, Japan) and cultured for seven months up to average body weight of 250 g. Chemical composition of control diet was containing crude protein 50%; […]; Ca 2.3%; ash 16.0%; and phosphorus 1.5%. Each selenium-added diet was fed twice a day for 4 weeks in an amount of 1% of the average body weight. Body weight of fish in each tank was measured when fish were sampled and amount of diet was calculated according to the body weight of every sampling day. The added selenium concentrations in the diets were set in 0 ppm, 1 ppm, and 2 ppm selenium according to the previous study (Tohfuku et al. [2021]). After that, they were fed a commercial diet twice a day for 1 week. The test groups were the control group, the sodium selenite group (1 mg Se/kg feeding group and 2 mg Se/kg feeding group), the selenomethionine group (1 mg Se/kg feeding group and 2 mg Se/kg feeding group), and the selenoneine group (1 mg Se/kg feeding group and 2 mg Se/kg feeding group) were set. The number of fish raised was 15 from the start of rearing in each tank until the 2nd week, 10 from the 3rd to 4th week, and 5 in the 5th week. […] We reared red seabream by feeding of 1% dry pellet containing of sodium selenite, selenomethionine, or selenoneine of body weight twice a day for 4 weeks. After that, we replaced to 1% of commercial dry pellet of body weight twice a day for 1 week from the selenium supplementation. Average water temperature was 20.9 ℃ (19.0–23.9 ℃) and average dissolved oxygen was 7.41 mg/L. The body weight change of red seabream for 5 weeks is shown in Table S2.\n(§2) Red seabream was anesthetized by adding 2 mL of anesthetic (1/100 volume of 2-methylquinoline dissolved in ethanol) to 1 L of seawater. A small amount of an anticoagulant (heparin sodium dissolved in physiological saline; 800 units/mL) was placed in a syringe in advance, and blood was collected from the caudal peduncle of each fish. The collected blood was centrifuged at 5000 rpm for 5 min (4 °C), divided into a plasma fraction and a precipitated fraction, and stored at − 50 °C. The precipitated fraction was used for analysis as the blood cell fraction.\nSelenoneine was separated by chromatography using a Shodex GF-310 column (4.5 mm × 150 mm; Showa Denko, Tokyo, Japan) equilibrated with 100 mM ammonium formate buffer containing 0.1% (w/v) Igepal CA-630 (MP Biomedicals, CA, USA). The injection volume was at 10 μL. The mobile phase delivered at 0.5 mL/min isocratically. ^82Se was detected with high performance liquid chromatography inductively coupled plasma mass spectrometry (HPLC-ICP-MS; Agilent 1100 Series and Agilent 7500 Series, Agilent Technology) (Yamashita and Yamashita [2010]). During separation, selenoneine was eluted at a retention time of 200 s, and the selenium concentration was determined using selenoneine as a standard."}, "[3]": {"assay": "Total selenium concentrations in the tissues of red seabream after feeding selenium-supplemented dry pellet (fluorometric assay with 2,3-diamino-naphthalene)", "procedure": "as §1, §2\nTotal selenium concentration was determined by fluorometric assay with 2,3-diamino-naphthalene, after digestion in 1.5 mL of nitric acid and perchloric acid (1:2 in volume) at 200–220 ℃ (Watkinson [1966]; Yamashita and Yamashita [2010])."}, "[4]": {"details": "5 weeks (4 weeks supplementation, then 1 week commercial diet), diet 1 mg Se/kg added"}, "[5]": {"details": "5 weeks (4 weeks supplementation, then 1 week commercial diet), diet 2 mg Se/kg added"}},
  "data": [
    {"compound": "O=[Se]([O-])[O-].[Na+].[Na+]", "note": "[Sodium selenite, reference compound]", "values": [
      {"measurement": "ORP in white muscle compared to control", "setting": "[1]", "result": "reduced ORP"},
      {"measurement": "Selenoneine concentration, blood cell", "setting": "[2]; diet 1 mg Se/kg added", "result": "1.98 ± 0.39", "unit": "mg Se/kg"},
      {"measurement": "Selenoneine concentration, blood cell", "setting": "[2]; diet 2 mg Se/kg added", "result": "1.91 ± 0.43", "unit": "mg Se/kg"},
      {"measurement": "Selenoneine concentration, white muscle", "setting": "[2]; diet 1 mg Se/kg added", "result": "0.019 ± 0.002", "unit": "mg Se/kg"},
      {"measurement": "Selenoneine concentration, white muscle", "setting": "[2]; diet 2 mg Se/kg added", "result": "0.020 ± 0.003", "unit": "mg Se/kg"},
      {"measurement": "Total selenium content, blood cell", "setting": "[3]; 2 weeks, diet 1 mg Se/kg added", "result": "2.44 ± 0.27", "unit": "mg Se/kg"},
      {"measurement": "Total selenium content, blood cell", "setting": "[3]; 2 weeks, diet 2 mg Se/kg added", "result": "2.49 ± 0.29", "unit": "mg Se/kg"},
      {"measurement": "Total selenium content, blood cell", "setting": "[3]; 4 weeks, diet 1 mg Se/kg added", "result": "3.11 ± 0.40", "unit": "mg Se/kg"},
      {"measurement": "Total selenium content, blood cell", "setting": "[3]; 4 weeks, diet 2 mg Se/kg added", "result": "2.86 ± 0.17", "unit": "mg Se/kg"},
      {"measurement": "Total selenium content, blood cell", "setting": "[3]; [4]", "result": "3.18 ± 0.76", "unit": "mg Se/kg"},
      {"measurement": "Total selenium content, blood cell", "setting": "[3]; [5]", "result": "3.13 ± 0.48", "unit": "mg Se/kg"},
      {"measurement": "Total selenium content, brain", "setting": "[3]; 2 weeks, diet 1 mg Se/kg added", "result": "0.49 ± 0.03", "unit": "mg Se/kg"},
      {"measurement": "Total selenium content, brain", "setting": "[3]; 2 weeks, diet 2 mg Se/kg added", "result": "0.50 ± 0.03", "unit": "mg Se/kg"},
      {"measurement": "Total selenium content, brain", "setting": "[3]; 4 weeks, diet 1 mg Se/kg added", "result": "0.54 ± 0.07", "unit": "mg Se/kg"},
      {"measurement": "Total selenium content, brain", "setting": "[3]; 4 weeks, diet 2 mg Se/kg added", "result": "0.45 ± 0.10", "unit": "mg Se/kg"},
      {"measurement": "Total selenium content, brain", "setting": "[3]; [4]", "result": "0.35 ± 0.09", "unit": "mg Se/kg"},
      {"measurement": "Total selenium content, brain", "setting": "[3]; [5]", "result": "0.33 ± 0.11", "unit": "mg Se/kg"},
      {"measurement": "Tissues in which total selenium was accumulated compared with the control group", "setting": "[3]; diet 1 mg Se/kg and 2 mg Se/kg", "result": "white muscle, kidney, and hepatopancreas"},
      {"measurement": "Total selenium content, heart", "setting": "[3]; 2 weeks, diet 1 mg Se/kg added", "result": "1.05 ± 0.20", "unit": "mg Se/kg"},
      {"measurement": "Total selenium content, heart", "setting": "[3]; 2 weeks, diet 2 mg Se/kg added", "result": "0.99 ± 0.10", "unit": "mg Se/kg"},
      {"measurement": "Total selenium content, heart", "setting": "[3]; 4 weeks, diet 1 mg Se/kg added", "result": "1.27 ± 0.11", "unit": "mg Se/kg"},
      {"measurement": "Total selenium content, heart", "setting": "[3]; 4 weeks, diet 2 mg Se/kg added", "result": "1.22 ± 0.08", "unit": "mg Se/kg"},
      {"measurement": "Total selenium content, heart", "setting": "[3]; [4]", "result": "1.20 ± 0.09", "unit": "mg Se/kg"},
      {"measurement": "Total selenium content, heart", "setting": "[3]; [5]", "result": "1.04 ± 0.07", "unit": "mg Se/kg"},
      {"measurement": "Total selenium content, hepatopancreas", "setting": "[3]; 2 weeks, diet 1 mg Se/kg added", "result": "1.12 ± 0.16", "unit": "mg Se/kg"},
      {"measurement": "Total selenium content, hepatopancreas", "setting": "[3]; 2 weeks, diet 2 mg Se/kg added", "result": "1.31 ± 0.15", "unit": "mg Se/kg"},
      {"measurement": "Total selenium content, hepatopancreas", "setting": "[3]; 4 weeks, diet 1 mg Se/kg added", "result": "1.40 ± 0.19", "unit": "mg Se/kg"},
      {"measurement": "Total selenium content, hepatopancreas", "setting": "[3]; 4 weeks, diet 2 mg Se/kg added", "result": "1.45 ± 0.13", "unit": "mg Se/kg"},
      {"measurement": "Total selenium content, hepatopancreas", "setting": "[3]; [4]", "result": "1.31 ± 0.23", "unit": "mg Se/kg"},
      {"measurement": "Total selenium content, hepatopancreas", "setting": "[3]; [5]", "result": "1.28 ± 0.18", "unit": "mg Se/kg"},
      {"measurement": "Total selenium content, kidney", "setting": "[3]; 2 weeks, diet 1 mg Se/kg added", "result": "2.46 ± 0.31", "unit": "mg Se/kg"},
      {"measurement": "Total selenium content, kidney", "setting": "[3]; 2 weeks, diet 2 mg Se/kg added", "result": "2.50 ± 0.19", "unit": "mg Se/kg"},
      {"measurement": "Total selenium content, kidney", "setting": "[3]; 4 weeks, diet 1 mg Se/kg added", "result": "3.07 ± 0.24", "unit": "mg Se/kg"},
      {"measurement": "Total selenium content, kidney", "setting": "[3]; 4 weeks, diet 2 mg Se/kg added", "result": "3.06 ± 0.34", "unit": "mg Se/kg"},
      {"measurement": "Total selenium content, kidney", "setting": "[3]; [4]", "result": "2.60 ± 0.32", "unit": "mg Se/kg"},
      {"measurement": "Total selenium content, kidney", "setting": "[3]; [5]", "result": "2.71 ± 0.39", "unit": "mg Se/kg"},
      {"measurement": "Total selenium content, spleen", "setting": "[3]; 2 weeks, diet 1 mg Se/kg added", "result": "2.58 ± 0.16", "unit": "mg Se/kg"},
      {"measurement": "Total selenium content, spleen", "setting": "[3]; 2 weeks, diet 2 mg Se/kg added", "result": "2.80 ± 0.25", "unit": "mg Se/kg"},
      {"measurement": "Total selenium content, spleen", "setting": "[3]; 4 weeks, diet 1 mg Se/kg added", "result": "3.09 ± 0.47", "unit": "mg Se/kg"},
      {"measurement": "Total selenium content, spleen", "setting": "[3]; 4 weeks, diet 2 mg Se/kg added", "result": "2.94 ± 0.22", "unit": "mg Se/kg"},
      {"measurement": "Total selenium content, spleen", "setting": "[3]; [4]", "result": "2.80 ± 0.28", "unit": "mg Se/kg"},
      {"measurement": "Total selenium content, spleen", "setting": "[3]; [5]", "result": "2.47 ± 0.35", "unit": "mg Se/kg"},
      {"measurement": "Total selenium content, white muscle", "setting": "[3]; 2 weeks, diet 1 mg Se/kg added", "result": "0.39 ± 0.02", "unit": "mg Se/kg"},
      {"measurement": "Total selenium content, white muscle", "setting": "[3]; 2 weeks, diet 2 mg Se/kg added", "result": "0.40 ± 0.02", "unit": "mg Se/kg"},
      {"measurement": "Total selenium content, white muscle", "setting": "[3]; 4 weeks, diet 1 mg Se/kg added", "result": "0.39 ± 0.01", "unit": "mg Se/kg"},
      {"measurement": "Total selenium content, white muscle", "setting": "[3]; 4 weeks, diet 2 mg Se/kg added", "result": "0.39 ± 0.03", "unit": "mg Se/kg"},
      {"measurement": "Total selenium content, white muscle", "setting": "[3]; [4]", "result": "0.38 ± 0.06", "unit": "mg Se/kg"},
      {"measurement": "Total selenium content, white muscle", "setting": "[3]; [5]", "result": "0.36 ± 0.05", "unit": "mg Se/kg"}
    ]},
    {"compound": "C[Se]CC[C@H](N)C(=O)O", "note": "[Selenomethionine, Seleno-L-methionine]", "values": [
      {"measurement": "ORP in white muscle compared to control", "setting": "[1]", "result": "reduced ORP"}
    ]}
  ]
}
